The values below are quoted from earlier work in patent publication US20110086070A1, “Orally disintegrating compositions of rhein or diacerein” (priority 2008, published 2011).

Where a name gives a salt, the structure may show the parent alone.

The conditions of series [1]: oral route.

On to `CC(=O)Oc1cccc2c1C(=O)c1c(OC(C)=O)cc(C(=O)O)cc1C2=O` [potassium salt of diacerein], for which the solubility in water result (water, disclosed in EP 243,968) is listed as “water-soluble”.

Consider `CC(=O)Oc1cccc2c1C(=O)c1c(OC(C)=O)cc(C(=O)O)cc1C2=O` [Diacerein, 4,5-bis(acetyloxy)9,10-dihydro-4,5-dihydroxy-9,10-dioxo-2-anthracenecarboxylic acid], for which, under “solvents such as water, alcohols, acetone, dichloromethane and chloroform”, the solubility in solvents result was “practically insoluble”. Besides, in series [1], the “absorption by the digestive tract” value is on record as “cannot be completely absorbed”.
